Experimental findings from patent US4952580A, “Pesticidal polyhaloalkene derivatives” (priority 1988, dated 1990) are described below.

The inhibition is the percentage by which the read-out fell short of the control. By mortality is commonly meant the share of the test organisms that died.

Where two headings read alike, the source gives them in different places.

The subject of data set [1] is root-knot nematode (Meloidogyne incognita). The data set is described as follows: Initial Root-Knot Nematicidal Activity. The following applies: 336 h, read-out: Percent Control; for pest or weed control at 0.078 ppm: Table 2, Application Rate 0.078 ppm; for pest or weed control at 0.156 ppm: Table 2, Application Rate 0.156 ppm; for pest or weed control at 0.312 ppm: Table 2, Application Rate 0.312 ppm; for pest or weed control at 2.5 ppm: Table 2, Application Rate 2.5 ppm. The data set is classed as in vivo. The procedure, abridged: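 Compound incorporated into Meloidogyne incognita-infested soil at 10 ppm to 0.078 ppm, then planted with tomato or cucumber seedlings. Root galling scored two weeks after planting as a knot index and converted to percent control, given as averages.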

In data set [2] the test system is root-knot nematode. The data set can be described thus: Soil Mobility against root-knot nematode. The data set is classed as in vivo, Meloidogyne incognita. The following applies: 336 h, Table 7a, 5% dust, 5 ppm, read-out: Percent Control. In a few lines:
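Soil mobility of the nematicidal test material was evaluated by placing treated, nematode-infested soil in 8 cm plastic pots stacked above two or more pots of untreated infested soil, each containing a 10 cm^3 sand layer and filter paper discs. Fifteen cm of water was dripped through, pots drained 16-18 hours, then were planted with cucumber or tomato seedlings and scored for Percent Control.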

The subject of the next data set is lesion nematode. The data set can be described thus: Lesion Nematode Test. The data set is classed as in vivo. The following applies: read-out: Percent Control. The procedure, abridged: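 Run as the stunt nematode test but on pea seedlings; compounds applied as dust formulations (initial and residual activity) or acetone/water formulations (systemic activity), with untreated samples as reference. Percent control derived by formula.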

A further data set concerns corn seedling. The data set is described as follows: Phytotoxicity noted in Stunt Nematode Test. The following applies: Table 4a; rate 5 ppm. Also on record: key: *: Some phytotoxicity. The data set is classed as in vivo. The text has this: The procedure was substantially the same as in the initial root-knot nematode tests described above except that rates of application of formulated compound were 2.5 and 5 ppm in soil containing a corn seedling, with subsequent inoculation of the soil with combined larvae and adult stunt nematodes. The samples were evaulated approximately four weeks after infestation. The results (Tables 4 and 4a appended) indicate good control at the test application rates as compared with untreated samples where no control was observed. "Percent control" means the difference between average population counts between untreated and treated samples, divided by average population count of untreated sample, multiplied by 100.

The subject of a further data set is stunt nematode. The data set can be described thus: Stunt Nematode Test. The data set is classed as in vivo.
The subject of data set [3] is root-knot nematode. The data set can be described thus: Residual Root-Knot Nematicidal Activity. The following applies: Table 3a, 5% dust, 5 ppm, read-out: Percent Control. The data set is classed as in vivo, Meloidogyne incognita. In a few lines: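 Soil received 5% dust formulation at 5 and 10 ppm test compound and was held in a greenhouse, then infested with root-knot nematode eggs and larvae at 1, 2 and 4 weeks post-treatment. Cucumber or tomato seedlings were planted and scored about two weeks after infestation for Knot Index and Percent Control.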

The subject of a further data set is cyst nematode. The data set is described as follows: Cyst Nematode Test. The data set is classed as in vivo. The following applies: Table 6; rate 5 ppm; read-out: Percent Control. The procedure:
Compounds of this invention were tested as follows for nematicidal and anthelmintic activity as dust formulations (initial and residual activity) and as acetone/water formulations (systemic activity). The formulations are described above.
The procedures was substantially the same as described in the stunt nematode test except soybean seedlings were used. "Percent Control" (Table 6 appended) is as defined in the stunt nematode test results.

A further data set deals with Caenorhabditis elegans. The data set can be described thus: C. Elegans Nematode Screening Test and Evaluation (in-vitro). To be noted: Caenorhabditis elegans. In a few lines:
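Worms (10-15 per well) in buffer with E. coli food, ampicillin and mycostatin; compound added in DMSO, 2-3 replicates per rate. Incubated 5-6 days at 20° C. Population development scored against untreated wells, noting effects such as reduced egg hatch or molting disruption.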

The test system of data set [4] is cucumber or tomato seedling. The data set is described as follows: Phytotoxicity noted in Soil Mobility test. The data set is classed as in vivo. The following applies: Table 7a, 5% dust, 5 ppm. Also on record: key: *: Some phytotoxicity. The text has this:
The ability of nematicidal compounds of the invention to move through nematode-infested soil […] infested soil, and subsequently eluting the soil with 15 cm of water (equivalent to 15 cm of rainfall) into a series of two or more pots of untreated, but nematode-infested, soil. Specifically, the pots were 8 cm diameter plastic pots containing a 10 cm^3 layer of sand over a coarse grade filter paper disc. Sufficient soil was placed over the sand to fill the pots, and a second filter paper disc was placed over the soil. Each test compound-treated pot was nested over a series of two or more pots containing untreated, but nematode-infested soil, also containing sand filter paper discs as described for the treated soil pots. Fifteen cm of water was slowly dripped into the top pots and the pots were allowed to drain for 16-18 hours to remove excess water. The top filter of each pot was then removed and the pots were planted with a cucumber or tomato seedling. […] "Knot Index" and "Percent Control" are as defined in the initial root-knot nematode tests above.

The subject of data set [5] is root-knot nematode. The data set can be described thus: Systemic Activity (basipetal, foliar spray) against root-knot nematode. To be noted: 336 h, read-out: Percent Control; for pest or weed control at 2000 ppm: Table 8, rate 2000 ppm. The data set is classed as in vivo, Meloidogyne incognita. The procedure, abridged:
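Tomato plants at 4-6 true leaves were foliar-sprayed with compound in water/acetone, soil covered, then kept 3 days at 25° C before soil inoculation with nematodes. After about two weeks, root galling versus untreated controls was scored as Knot Index and Percent Control.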

Setting [6] is: Table 2, Application Rate 0.625 ppm.
Where [7] appears, read: Table 2, Application Rate 1.25 ppm.
Where [8] appears, read: 672 h, Table 4a; rate 5 ppm; read-out: Percent Control.
Where [9] appears, read: 168 h, inoculation 1 week post-treatment.
The mark [10] stands for this setting: 336 h, inoculation 2 weeks post-treatment.
Setting [11] is: 672 h, inoculation 4 weeks post-treatment.

Consider `FC(F)=C(F)CCSc1nnc(Cc2ccccc2)o1` [Compound 42, 2-phenylmethyl-5-(3,4,4-trifluoro-3-butenylthio)-1,3,4-oxadiazole], for which the pest or weed control at 0.078 ppm in [1] stood at 38%. In addition, in data set [1], the pest or weed control at 0.156 ppm stood at 50%. Moreover, the pest or weed control at 0.312 ppm in data set [1] is 86%. The pest or weed control at 0.625 ppm in data set [1] (setting [6]) is 98%. Also, the pest or weed control at 1.25 ppm in [1] (setting [7]) was determined as 98%. Also, the pest or weed control at 2.5 ppm in data set [1] was determined as 100%; with lesion nematode (Table 5, rate 2.5 ppm), 82%; in the data set with lesion nematode, 73%. Also, the pest or weed control at 5 ppm in the data set on root-knot nematode [2] (BOTTOM container) came to 100%; in the data set on root-knot nematode [2] (MIDDLE container) it was 100%; with root-knot nematode [2] (TOP container), 100%; in the data set with stunt nematode (setting [8]) it was 76%; in the data set with stunt nematode (672 h; Table 4a; rate 5 ppm; read-out: Percent Control), 33%; in the data set on root-knot nematode [3] (setting [9]), 99%. In addition, the pest or weed control at 5 ppm with root-knot nematode [3] (setting [10]) was 97%; in the data set on root-knot nematode [3] (setting [11]), 0%; with cyst nematode, 30%. In addition, the Some phytotoxicity result in the data set on corn seedling is recorded as “*”.

With `FC(F)=C(F)CCSc1nnc(-c2cccc(Cl)c2)o1` [Compound 48, 2-(3-chlorophenyl)-5-(3,4,4-trifluoro-3-butenylthio)-1,3,4-oxadiazole], the pest or weed control at 0.078 ppm in data set [1] was 6%. The pest or weed control at 0.156 ppm in data set [1] turned out to be 38%. Besides, the pest or weed control at 0.312 ppm in data set [1] was 64%. For the same compound, the pest or weed control at 0.625 ppm in data set [1] (setting [6]) worked out at 78%; in [1], 87%. Further, the pest or weed control at 2.5 ppm in data set [1] stood at 98%; with lesion nematode (Table 5, rate 2.5 ppm), 85%. Besides, the pest or weed control at 1.25 ppm in data set [1] turned out to be 95%. Besides, the pest or weed control at 5 ppm in the data set on stunt nematode (setting [8]) turned out to be 82%; in the data set with root-knot nematode [3] (setting [9]), 97%; with root-knot nematode [3] (setting [10]) it was 97%; in the data set with root-knot nematode [3] (setting [11]), 69%; with cyst nematode, 86%. Further, the inhibition at 5 ppm in the data set with Caenorhabditis elegans (Table 9 screen, 5 ppm, read-out: Percent Inhibition of Reproduction) turned out to be 100%. Further, the mortality at 5 ppm in the data set on Caenorhabditis elegans (Table 9 screen, 5 ppm, read-out: Percent Mortality) amounted to 88%; in the data set with Caenorhabditis elegans (Table 10 evaluation, 5 ppm, read-out: Percent Mortality), 100%. Besides, in the data set with Caenorhabditis elegans (Table 10 evaluation, 1.25 ppm, read-out: Percent Inhibition of Reproduction), the inhibition at 1.25 ppm was determined as 17%. Moreover, the mortality at 1.25 ppm in the data set with Caenorhabditis elegans (Table 10 evaluation, 1.25 ppm, read-out: Percent Mortality) was found to be 0%. Also, the inhibition at 2.5 ppm in the data set on Caenorhabditis elegans (Table 10 evaluation, 2.5 ppm, read-out: Percent Inhibition of Reproduction) is 25%. Moreover, the mortality at 2.5 ppm in the data set on Caenorhabditis elegans (Table 10 evaluation, 2.5 ppm, read-out: Percent Mortality) is 0%. In [4] (TOP container), the Some phytotoxicity entry is “*”. Moreover, in the data set on root-knot nematode [5] (Table 8, rate 2500 ppm), the pest or weed control at 2500 ppm amounted to 33%. The pest or weed control at 2000 ppm in the data set with root-knot nematode [5] (foliar) worked out at 50%.

For the compound `CCCc1nnc(SCCC(F)=C(F)F)o1` [Compound 41, 2-propyl-5-(3,4,4-trifluoro-3-butenylthio)-1,3,4-oxadiazole], the pest or weed control at 0.078 ppm in data set [1] amounted to 31%. Moreover, in data set [1], the pest or weed control at 0.156 ppm was found to be 84%. Besides, in data set [1] (setting [6]), the pest or weed control at 0.625 ppm was determined as 98%. For the same compound, the pest or weed control at 1.25 ppm in data set [1] (setting [7]) was 100%. For the same compound, the pest or weed control at 2.5 ppm in data set [1] worked out at 100%; with lesion nematode (Table 5, rate 2.5 ppm) it was 64%. Besides, the pest or weed control at 5 ppm in the data set with root-knot nematode [2] (BOTTOM container) turned out to be 8%; in the data set with root-knot nematode [2] (MIDDLE container), 95%; in the data set on root-knot nematode [2] (TOP container) it was 97%; with stunt nematode (setting [8]), 29%; in the data set with root-knot nematode [3] (setting [9]), 97%; in the data set with root-knot nematode [3] (setting [10]) it was 63%. Besides, the values for the pest or weed control at 5 ppm with root-knot nematode [3] (setting [11]) and with cyst nematode were 6% and 0%, respectively. The Some phytotoxicity entry in [4] (MIDDLE container) and in data set [4] (TOP container) was “*” throughout. In addition, in the data set on root-knot nematode [5], the pest or weed control at 2000 ppm worked out at 17%.
